Data from US20230159449A1, “LIPID FORMULATIONS CONTAINING NUCLEIC ACIDS AND METHODS OF TREATMENT FOR CYSTIC FIBROSIS” (Arcturus Therapeutics, Inc., priority 2021, published 2023).

Test system: FRT cells
Test: Transepithelial conductance (Gt) in Air-Liquid Interface culture of transfected FRT cells
Assay type: cell-based, rat
Conditions: FRT cells transfected with 2099.1 or 1835.1; sequential Forskolin, VX770, Inh-172
Procedure: Further studies were conducted to assess the activity of hCFTR proteins expressed by selected mRNA constructs and whether these can properly open and close to allow proper ion transport. In these studies, an Air-Liquid Interface (ALI) cell culture model of FRT cells was used to transfect an unformulated subset of codon-optimized hCFTR mRNAs at different doses ranging from 0.5 μg-2 μg of mRNA (the 2 μg dose is not shown) into the FRT cells. ALI is a method of cell culture by which polarized cells are generated with their basal surfaces in contact with media, and the top of the cellular layer is exposed to the air. This model helps to mimic the cellular structure of in vivo airways. At 24 hours post-transfection, transepithelial conductance (Gt) of the cells over time was measured as an indicator of CFTR activity. Initially, Gt was measured with the transfected or control cells unperturbed. Then, a sequential process of CFTR activation (channel opening), enhancement (gating promotion) and closing of the CFTR channels was performed. The hCFTR constructs used in this study were 1835.1 (SEQ ID NO: 53), 2093.1 (SEQ ID NO: 66), 2095.1 (SEQ ID NO: 68), 2096.1 (SEQ ID NO: 69), and 2099.1 (SEQ ID NO: 72). In addition, controls were performed using a reference sequence of construct 764.1 (SEQ ID NO: 47) and untransfected cells. […]

For `O=C(O)c1ccc(C=C2SC(=S)N(c3cccc(C(F)(F)F)c3)C2=O)cc1` [Inh-172, reference compound], the “change in Gt on introduction of the agent” value was “decline in Gt”.
In the case of `CC(C)(C)c1cc(C(C)(C)C)c(NC(=O)c2c[nH]c3ccccc3c2=O)cc1O` [VX770, reference compound], the “change in Gt on introduction of the agent” value is reported as “second increase in Gt”.
